From patent US9365583B2, “Substituted pyrazoles and uses thereof” (Genentech, Inc., priority 2013, dated 2016)

Biological target: T1, N-terminally GST-tagged DLK (catalytic domain amino acid 1-520) (Homo sapiens, UniProt Q12852)
T1 construct: N-terminally GST-tagged DLK (catalytic domain amino acid 1-520); purchased Carna Bioscience
T1 sequence (Q12852 1-520): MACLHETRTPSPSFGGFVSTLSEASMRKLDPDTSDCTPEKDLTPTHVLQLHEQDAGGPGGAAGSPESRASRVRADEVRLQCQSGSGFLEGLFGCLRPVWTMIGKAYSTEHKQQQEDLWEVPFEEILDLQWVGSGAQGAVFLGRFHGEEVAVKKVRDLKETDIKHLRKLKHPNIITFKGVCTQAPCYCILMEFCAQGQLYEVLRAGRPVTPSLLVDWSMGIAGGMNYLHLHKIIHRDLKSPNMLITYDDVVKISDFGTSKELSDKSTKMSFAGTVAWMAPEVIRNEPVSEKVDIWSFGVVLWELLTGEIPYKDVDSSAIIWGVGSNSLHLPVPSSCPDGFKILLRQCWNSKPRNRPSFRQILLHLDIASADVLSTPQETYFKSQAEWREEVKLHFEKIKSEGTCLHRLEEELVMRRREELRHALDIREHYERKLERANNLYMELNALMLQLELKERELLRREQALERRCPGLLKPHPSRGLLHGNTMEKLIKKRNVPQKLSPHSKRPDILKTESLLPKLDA
Assay: DLK TR-FRET inhibition assay
Format: biochemical
Conditions: 5 nM GST-DLK, 40 nM HIS-MKK4 K131M substrate, 30 μM ATP, 60 minutes at ambient temperature
Description: DLK TR-FRET inhibition assay: DLK kinase reactions (20 μL) containing 5 nM N-terminally GST-tagged DLK (catalytic domain amino acid 1-520) (Carna Bioscience), 40 nM N-terminally HIS-tagged MKK4 K131M substrate, and 30 μM ATP in kinase reaction buffer (50 mM HEPES, pH 7.5, 0.01% Triton X-100, 0.01% Bovine γ-Globulins, 2 mM DTT, 10 mM MgCl2 and 1 mM EGTA), and testing compound 1:3 serial diluted starting at 20 uM were incubated at ambient temperature for 60 minutes in 384 well OptiPlate (Perkin Elmer). To quench kinase reactions and detect phosphorylated MKK4, 15 μL of TR-FRET antibody mixture containing 2 nM anti-phosphorylated MKK4 labeled with Europium cryptate (Cisbio) and 23 nM anti-HIS labeled with D2 (Cisbio) in detection buffer (25 mM Tris pH 7.5, 100 mM NaCl, 100 mM EDTA, 0.01% Tween-20, and 200 mM KF) was added to the reaction mixture. The detection mixture was incubated for 3 hours at ambient temperature and the TR-FRET was detected with an EnVision multilabel plate reader (Perkin-Elmer) using the LANCE/DELFIA Dual Enh label from Perkin-Elmer (excitation filter: UV2 (TRF) 320 and emission filters: APC 665 and Europium 615).

| Ki [nM] | Compound |
| --- | --- |
| 4.63 | CC(C)n1nc(-c2cnc(N)c(C(F)(F)F)c2)cc1[C@H]1[C@@H]2C[C@@H](N(C)CCS(C)(=O)=O)C[C@@H]21 [compound 7, 5-(1-isopropyl-5-((1R,3s,5S,6r)-3-(methyl(2-(methylsulfonyl)ethyl)amino)bicyclo[3.1.0]hexan-6-yl)-1H-pyrazol-3-yl)-3-(trifluoromethyl)pyridin-2-amine] |
| 3.36 | CC(C)n1nc(-c2cnc(N)c(C(F)(F)F)c2)cc1[C@H]1[C@@H]2C[C@H](N(C)CCS(C)(=O)=O)C[C@@H]21 [compound 8, 5-(1-isopropyl-5-((1R,3r,5S,6r)-3-(methyl(2-(methylsulfonyl)ethyl)amino)bicyclo[3.1.0]hexan-6-yl)-1H-pyrdzol-3-yl)-3-(trifluoromethyl)pyridin-2-amine] |
| 4 | CC(C)n1nc(-c2cnc(N)c(C(F)(F)F)c2)cc1[C@H]1[C@@H]2C[C@@H](N3CCS(=O)(=O)CC3)C[C@@H]21 [compound 9, 4-((1R,3s,5S,6r)-6-(3-(6-amino-5-(trifluoromethyl)pyridin-3-yl)-1-isopropyl-1H-pyrazol-5-yl)bicyclo[3.1.0]hexan-3-yl)thio-morpholine 1,1-dioxide] |
| 3.28 | CC(C)n1nc(-c2cnc(N)c(C(F)(F)F)c2)cc1[C@H]1[C@@H]2C[C@H](N3CCS(=O)(=O)CC3)C[C@@H]21 [compound 10, 4-((1R,3r,5S,6r)-6-(3-(6-amino-5-(trifluoromethyl)pyridin-3-yl)-1-isopropyl-1H-pyrazol-5-yl)bicyclo[3.1.0]hexan-3-yl)thio-morpholine 1,1-dioxide] |
| 1.89 | CC(C)n1nc(-c2cnc(N)c(OC(F)(F)F)c2)cc1[C@H]1[C@@H]2C[C@@H](N3CCOC[C@H]3C)C[C@@H]21 [compound 13, 5-(1-isopropyl-5-((1R,3s,5S,6R)-3-((R)-3-mcthylmorpholino)bicyclo[3.1.0]hexan-6-yl)-1H-pyrazol-3-yl)-3-(trifluoromethoxy) pyridin-2-amine] |
| 1.72 | CCN1CCN([C@H]2C[C@@H]3[C@H](C2)[C@H]3c2cc(-c3cnc(N)c(OC(F)(F)F)c3)nn2C(C)C)CC1 [compound 14, 5-(5-((1R,3r,5S,6r)-3-(4-ethylpiperazin-1-yl)bicyclo[3.1.0]hexan-6-yl)-1-isopropyl-1H-pyrazol-3-yl)-3-(trifluoromethoxy) pyridin-2-amine] |
| 3.58 | CCN1CCN([C@@H]2C[C@@H]3[C@H](C2)[C@H]3c2cc(-c3cnc(N)c(OC(F)(F)F)c3)nn2C(C)C)CC1 [compound 15, 5-(5-((1R,3s,5S,6r)-3-(4-ethylpiperazin-1-yl)bicyclo[3.1.0]hexan-6-yl)-1-isopropyl-1H-pyrazol-3-yl)-3-(trifluoromethoxy) pyridin-2-amine] |
| 9.1 | CCN1CCN([C@H]2C[C@@H]3[C@H](C2)[C@H]3c2cc(-c3cnc(N)c(C(F)(F)F)c3)nn2C(C)C)CC1 [compound 16, 5-(5-((1R,3r,5S,6r)-3-(4-ethylpiperazin-1-yl)bicyclo[3.1.0]hexan-6-yl)-1-isopropyl-1H-pyrazol-3-yl)-3-(trifluoromethyl)pyridin-2-amine] |
| 2.92 | CCN1CCN([C@@H]2C[C@@H]3[C@H](C2)[C@H]3c2cc(-c3cnc(N)c(C(F)(F)F)c3)nn2C(C)C)CC1 [compound 17, 5-(5-((1R,3s,5S,6r)-3-(4-ethylpiperazin-1-yl)bicyclo[3.1.0]hexan-6-yl)-1-isopropyl-1H-pyrazol-3-yl)-3-(trifluoromethyl)pyridin-2-amine] |
| 3.81 | CC(C)n1nc(-c2cnc(N)c(OC(F)(F)F)c2)cc1[C@H]1[C@@H]2C[C@@H](N(C)CC3COC3)C[C@@H]21 [compound 18, 5-(1-isopropyl-5-((1R,3s,5S,6r)-3-(methyl(oxetan-3-ylmethyl)amino)bicyclo[3.1.0]hexan-6-yl)-1H-pyrazol-3-yl)-3-(trifluoromethoxy) pyridin-2-amine] |
| 2.97 | CC(C)n1nc(-c2cnc(N)c(OC(F)(F)F)c2)cc1[C@H]1[C@@H]2C[C@H](N(C)CC3COC3)C[C@@H]21 [compound 19, 5-(1-isopropyl-5-((1R,3r,5S,6r)-3-(methyl(oxetan-3-ylmethyl)amino)bicyclo[3.1.0]hexan-6-yl)-1H-pyrazol-3-yl)-3-(trifluoro-methoxy)pyridin-2-amine] |
| 4.39 | CC(C)n1nc(-c2cnc(N)c(C(F)(F)F)c2)cc1[C@H]1[C@@H]2C[C@H](N(C)CC3COC3)C[C@@H]21 [compound 20, 5-(1-isopropyl-5-((1R,3r,5S,6r)-3-(methyl(oxetan-3-ylmethyl)amino)bicyclo[3.1.0]hexan-6-yl)-1H-pyrazol-3-yl)-3-(trifluoro-methyl)pyridin-2-amine] |
| 4.2 | CC(C)n1nc(-c2cnc(N)c(C(F)(F)F)c2)cc1[C@H]1[C@@H]2C[C@@H](N(C)CC3COC3)C[C@@H]21 [compound 21, 5-(1-isopropyl-5-((1R,3s,5S,6r)-3-(methyl(oxetan-3-ylmethyl)amino)bicyclo[3.1.0]hexan-6-yl)-1H-pyrazol-3-yl)-3-(trifluoromethyl) pyridin-2-amine] |
| 1.57 | CO[C@@H]1CCN([C@H]2C[C@@H]3[C@H](C2)[C@H]3c2cc(-c3cnc(N)c(OC(F)(F)F)c3)nn2C(C)C)C1 [compound 22, 5-(1-isopropyl-5-((1R,3r,5S,6R)-3-((R)-3-methoxypyrrolidin-1-yl)bicyclo[3.1.0]hexan-6-yl)-1H-pyrazol-3-yl)-3-(trifluoro-methoxy)pyridin-2-amine] |
| 0.98 | CO[C@H]1CCN([C@H]2C[C@@H]3[C@H](C2)[C@H]3c2cc(-c3cnc(N)c(OC(F)(F)F)c3)nn2C(C)C)C1 [compound 23, 5-(1-isopropyl-5-((1R,3r,5S,6S)-3-((S)-3-methoxypyrrolidin-1-yl)bicyclo[3.1.0]hexan-6-yl)-1H-pyrazol-3-yl)-3-(trifluoro-methoxy)pyridin-2-amine] |
| 0.34 | CC(C)n1nc(-c2cnc3ccn([C@@H](C)c4ccccn4)c3c2)cc1[C@H]1[C@@H]2C[C@@H](N3CCOCC3)C[C@@H]21 [compound 24, 4-((1R,3R,5S,6r)-6-(1-isopropyl-3-(1-((S)-1-(pyridin-2-yl)ethyl)-1H-pyrrolo[3,2-b]pyridin-6-yl)-1H-pyrazol-5-yl)bicyclo[3.1.0]hexan-3-yl)morpholine] |
| 70.6 | CC(C)n1nc(-c2cnc3ccn([C@H](C)c4ccccn4)c3c2)cc1[C@H]1[C@@H]2C[C@@H](N3CCOCC3)C[C@@H]21 [compound 25, 4-((1R,3S,5S,6r)-6-(1-isopropyl-3-(1-((R)-1-(pyridin-2-yl)ethyl)-1H-pyrrolo[3,2-b]pyridin-6-yl)-1H-pyrazol-5-yl)bicyclo[3.1.0]hexan-3-yl)morpholine] |
| 75.6 | CC(C)n1nc(-c2cnc3ccn([C@H](C)c4ccccn4)c3c2)cc1[C@H]1[C@@H]2C[C@H](N3CCOCC3)C[C@@H]21 [compound 26, 4-((1R,3R,5S,6r)-6-(1-isopropyl-3-(1-((R)-1-(pyridin-2-yl)ethyl)-1H-pyrrolo[3,2-b]pyridin-6-yl)-1H-pyrazol-5-yl)bicyclo[3.1.0]hexan-3-yl)morpholine] |
| 0.14 | CC(C)n1nc(-c2cnc3ccn([C@@H](C)c4ccccn4)c3c2)cc1[C@H]1[C@@H]2C[C@H](N3CCOCC3)C[C@@H]21 [compound 27, 4-((1R,3S,5S,6r)-6-(1-isopropyl-3-(1-((S)-1-(pyridin-2-yl)ethyl)-1H-pyrrolo[3,2-b]pyridin-6-yl)-1H-pyrazol-5-yl)bicyclo[3.1.0]hexan-3-yl)morpholine] |
| 2.54 | CC(C)n1nc(-c2cnc(N)c(OC(F)(F)F)c2)cc1[C@H]1[C@@H]2C[C@@H](N3CC(F)C3)C[C@@H]21 [compound 28, 5-(5-((1R,3s,5S,6r)-3-(3-fluoro-azetidin-1-yl)bicyclo[3.1.0]hexan-6-yl)-1-isopropyl-1H-pyrazol-3-yl)-3-(trifluoromethoxy) pyridin-2-amine] |
| 2.83 | CC(C)n1nc(-c2cnc(N)c(OC(F)(F)F)c2)cc1[C@H]1[C@@H]2C[C@H](N3CC(F)C3)C[C@@H]21 [compound 29, 5-(5-((1R,3r,5S,6r)-3-(3-fluoro-azetidin-1-yl)bicyclo[3.1.0]hexan-6-yl)-1-isopropyl-1H-pyrazol-3-yl)-3-(trifluoromethoxy) pyridin-2-amine] |
